Literature values in US10617778B2, “Self-sterilizing package and methods for making and using the same” (priority 2014, dated 2020).

Tested on: humans

[O][Cl+][O-] [chlorine dioxide]
vapor concentration at which the gas can be toxic: greater than 0.3 ppm
